PMC11375437, “Selective labelling of GBA2 in cells with fluorescent β-D-arabinofuranosyl cyclitol aziridines” (Chemical Science, 2024)

Target: T1, GBA2 (Homo sapiens, UniProt Q9HCG7)
T1 sequence (Q9HCG7 1-927): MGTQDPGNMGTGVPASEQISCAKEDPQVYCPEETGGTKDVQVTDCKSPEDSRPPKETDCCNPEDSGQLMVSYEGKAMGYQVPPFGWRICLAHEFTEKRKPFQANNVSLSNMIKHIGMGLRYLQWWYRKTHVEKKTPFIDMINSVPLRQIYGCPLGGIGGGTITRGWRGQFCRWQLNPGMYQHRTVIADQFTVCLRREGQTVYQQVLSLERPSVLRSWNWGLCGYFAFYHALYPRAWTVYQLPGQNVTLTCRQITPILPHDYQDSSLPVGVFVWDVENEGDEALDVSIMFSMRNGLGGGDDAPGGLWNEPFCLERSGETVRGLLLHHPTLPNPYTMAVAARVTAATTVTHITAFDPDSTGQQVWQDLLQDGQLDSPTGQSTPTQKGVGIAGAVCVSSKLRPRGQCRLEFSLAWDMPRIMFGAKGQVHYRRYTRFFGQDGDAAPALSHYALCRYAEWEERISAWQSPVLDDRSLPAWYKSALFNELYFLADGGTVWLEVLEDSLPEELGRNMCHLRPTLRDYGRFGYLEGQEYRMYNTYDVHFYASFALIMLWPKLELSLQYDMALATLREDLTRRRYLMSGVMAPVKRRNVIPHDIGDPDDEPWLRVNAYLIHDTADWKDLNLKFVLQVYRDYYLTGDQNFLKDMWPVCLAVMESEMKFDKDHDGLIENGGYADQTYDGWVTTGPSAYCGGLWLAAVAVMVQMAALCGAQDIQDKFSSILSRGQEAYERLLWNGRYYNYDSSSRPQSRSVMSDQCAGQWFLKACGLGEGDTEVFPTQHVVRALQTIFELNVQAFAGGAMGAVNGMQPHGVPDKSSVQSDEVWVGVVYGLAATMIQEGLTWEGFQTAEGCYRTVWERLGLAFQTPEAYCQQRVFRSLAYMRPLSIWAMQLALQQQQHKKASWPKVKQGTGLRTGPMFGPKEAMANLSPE
Experiment: In situ labelling/inactivation in intact HEK293T cells (endogenous GBA1, GBA2/GBA3 OE)
Format: cell-based
Parameters: expressed in transfected cells; host or cells: HEK293T GBA1/GBA2 KO (CRISPR/Cas9), GBA2 overexpressed
Settings: ESI Fig. S8B (24 h incubation)
Method: We next sought to investigate whether we could identify and localize active GBA2 molecules in human cells using our β-D-Araf aziridine ABPs. […] The lysates were then denatured, their protein content separated by SDS-PAGE and the resulting wet gel slabs scanned for fluorescence. Following this procedure, we observed that all three β-D-Araf ABPs 3–5 enter intact cells, where they react with GBA2, and given the enzyme lifetime (>24 h), also with newly synthesized GBA2 (Fig. 5A, ESI Fig. S8A and B ^†).
Figure S7. Fluorescent gel images of in situ labelling of intact HEK293T cells (GBA1 endogenous and GBA2/GBA3 OE) by arabinofuranosyl cyclitol configured ABPs 3-5, 14 and 20 after 1 h incubation. GAA = Lysosomal α glucosidase (EC 3.2.1.20, CAZy GH31).
Figure S8. […] Intact HEK293T cells were treated with β-D-Araf ABPs for 24 h at 37 °C with 7% CO2, then cells were collected and lysed for labelling studies with or without residual β-glucosidases activity read out. […]
2.8 β-Glucosidase inactivation visualized by competitive ABPP with SDS-PAGE In general, samples containing GBA1, GBA2 or GBA3 (see the exact constitution of these samples in the described case) are first incubated (in vitro or in situ) with the inactivator compounds, subsequently, the fluorescent readout ABPs were added and incubated with the mixture to reveal the residual active β-glucosidase enzymes. […]

SMILES	Concentration at which GBA2 is inactivated almost completely in intact cells [nM]
CC1=CC(C)=[N+]2C1=C(CCCCc1cn(CCCCCCCCN3[C@@H]4[C@H](CO)[C@@H](O)[C@H](O)[C@@H]43)nn1)c1c(C)cc(C)n1[B-]2(F)F (some centres unmarked) [ABP 3]	100
COc1ccc(C2=[N+]3C(=C(CCCCc4cn(CCCCCCCCN5[C@@H]6[C@H](CO)[C@@H](O)[C@H](O)[C@@H]65)nn4)c4ccc(-c5ccc(OC)cc5)n4[B-]3(F)F)C=C2)cc1 (some centres unmarked) [ABP 4]	100
